Values of other authors, collected in patent US20060163529A1, “Water-based coolant fluid for engine applications” (Neste Oil Oyj, priority 2002, published 2006).

Tested on: rats
Conditions: tested orally in rats

Structure (SMILES)	LD50
CC(O)CO (centres unmarked) [Propylene glycol, propylene glycol]	20 000 mg/kg
C[N+](C)(C)CC(=O)O [Trimethyl glycine, trimethyl glycine]	11 200 mg/kg
